# Measurements as given in patent US9175003B2, “Substituted azoanthracene derivatives and intermediates for preparation thereof” (TransTech Pharma, LLC, priority 2009, dated 2015).
# Molecular target: human GLP-1 receptor (Homo sapiens (Human), UniProt P43220)
# Settings: read-out: Mean EC50; cAMP, HTRF detection, 30 min at 37° C., HEK-293 cells expressing cloned human GLP-1 receptor
# Chain of human GLP-1 receptor (P43220 24-463): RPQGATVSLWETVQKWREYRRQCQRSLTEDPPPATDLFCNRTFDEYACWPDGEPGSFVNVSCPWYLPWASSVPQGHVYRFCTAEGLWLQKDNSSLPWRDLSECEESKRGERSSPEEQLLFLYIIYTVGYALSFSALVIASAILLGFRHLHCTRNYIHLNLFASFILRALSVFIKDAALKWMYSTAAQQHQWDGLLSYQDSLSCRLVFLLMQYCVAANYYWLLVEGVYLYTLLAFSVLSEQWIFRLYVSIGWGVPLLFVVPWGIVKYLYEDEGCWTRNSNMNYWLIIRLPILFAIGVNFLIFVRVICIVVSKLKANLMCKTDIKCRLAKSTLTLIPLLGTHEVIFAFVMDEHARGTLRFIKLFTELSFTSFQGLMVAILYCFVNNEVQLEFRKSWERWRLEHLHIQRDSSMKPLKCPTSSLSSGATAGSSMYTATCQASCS
row,EC50 [nM],Compound
1,22,"CCC(CC)Oc1ccc([C@H]2COc3cc4c(cc3O2)CN([C@@H](CC)c2ccccc2)[C@H](C(=O)N[C@@H](Cc2ccc(-c3ccnc(C)c3C)cc2)C(=O)O)C4)cc1 [Example 166, (S)-3-[4-(2,3-Dimethyl-pyridin-4-yl)-phenyl]-2-{[(3S,8S)-3-[4-(1-ethyl-propoxy)-phenyl]-7-((S)-1-phenyl-propyl)-2,3,6,7,8,9-hexahydro-[1,4]dioxino[2,3-g]isoquinoline-8-carbonyl]-amino}-propionic acid]"
2,24,"Cc1nc(C(=O)N2Cc3cc4c(cc3C[C@H]2C(=O)N[C@@H](Cc2ccc(-c3ccnc(C)c3C)cc2)C(=O)O)OC[C@H](c2ccc(OCc3ccc(C)c(C)c3)cc2)O4)c(C)o1 [Example 217, (S)-2-{[(3S,8S)-3-[4-(3,4-Dimethyl-benzyloxy)-phenyl]-7-(2,5-dimethyl-oxazole-4-carbonyl)-2,3,6,7,8,9-hexahydro-[1,4]dioxino[2,3-g]isoquinoline-8-carbonyl]-amino}-3-[4-(2,3-dimethyl-pyridin-4-yl)-phenyl]-propionic acid]"
3,320,"Cc1nccc(Oc2ccc(C[C@H](NC(=O)[C@@H]3Cc4cc5c(cc4CN3S(=O)(=O)C(C)C)O[C@@H](c3ccc(OCc4ccc(Cl)c(Cl)c4)cc3)CO5)C(=O)O)cc2)c1C [Example 436, (S)-2-{[(3S,8S)-3-[4-(3,4-Dichloro-benzyloxy)-phenyl]-7-(propane-2-sulfonyl)-2,3,6,7,8,9-hexahydro-[1,4]dioxino[2,3-g]isoquinoline-8-carbonyl]-amino}-3-[4-(2,3-dimethyl-pyridin-4-yloxy)-phenyl]-propionic acid]"
4,81,"Cc1ccc(C(=O)N2Cc3cc4c(cc3C[C@H]2C(=O)N[C@@H](Cc2ccc(-c3ccnc(C)c3C)cc2)C(=O)O)OC[C@H](c2ccc(OCc3ccc(Cl)c(Cl)c3)cc2)O4)s1 [Example 329, (S)-2-{[(3S,8S)-3-[4-(3,4-dichloro-benzyloxy)-phenyl]-7-(5-methyl-thiophene-2-carbonyl)-2,3,6,7,8,9-hexahydro-[1,4]dioxino[2,3-g]isoquinoline-8-carbonyl]-amino}-3-[4-(2,3-dimethyl-pyridin-4-yl)-phenyl]-propionic acid]"
5,145,"Cc1nccc(Oc2ccc(C[C@H](NC(=O)[C@@H]3Cc4cc5c(cc4CN3C(=O)N[C@H](C)c3ccc(F)cc3)O[C@@H](c3ccc(OCc4ccc(Cl)c(Cl)c4)cc3)CO5)C(=O)O)cc2)c1C [Example 337, (S)-2-({(3S,8S)-3-[4-(3,4-Dichloro-benzyloxy)-phenyl]-7-[(R)-1-(4-fluoro-phenyl)-ethylcarbamoyl]-2,3,6,7,8,9-hexahydro-[1,4]dioxino[2,3-g]isoquinoline-8-carbonyl}-amino)-3-[4-(2,3-dimethyl-pyridin-4-yloxy)-phenyl]-propionic acid]"
6,17,"Cc1nc(C(=O)N2Cc3cc4c(cc3C[C@H]2C(=O)N[C@@H](Cc2ccc(-c3ccnc(C)c3C)cc2)C(=O)O)OC[C@H](c2ccc(OCc3ccc(Cl)c(Cl)c3)cc2)O4)c(C)o1 [Example 216, (S)-2-{[(3S,8S)-3-[4-(3,4-Dichloro-benzyloxy)-phenyl]-7-(2,5-dimethyl-oxazole-4-carbonyl)-2,3,6,7,8,9-hexahydro-[1,4]dioxino[2,3-g]isoquinoline-8-carbonyl]-amino}-3-[4-(2,3-dimethyl-pyridin-4-yl)-phenyl]-propionic acid]"
7,271,"Cc1nccc(Oc2ccc(C[C@H](NC(=O)[C@@H]3Cc4cc5c(cc4CN3C(=O)NC3CCCCC3)O[C@@H](c3ccc(OCc4ccc(Cl)c(Cl)c4)cc3)CO5)C(=O)O)cc2)c1C [Example 344, (S)-2-({(3S,8S)-7-Cyclohexylcarbamoyl-3-[4-(3,4-dichloro-benzyloxy)-phenyl]-2,3,6,7,8,9-hexahydro-[1,4]dioxino[2,3-g]isoquinoline-8-carbonyl}-amino)-3-[4-(2,3-dimethyl-pyridin-4-yloxy)-phenyl]-propionic acid]"
8,261,"Cc1nccc(-c2ccc(C[C@H](NC(=O)[C@@H]3Cc4cc5c(cc4CN3C(=O)OC(C)C)O[C@@H](c3ccc(OCc4ccc(Cl)c(Cl)c4)cc3)CO5)C(=O)O)cc2)c1C [Example 293, (3S,8S)-8-{(S)-1-Carboxy-2-[4-(2,3-dimethyl-pyridin-4-yl)-phenyl]-ethylcarbamoyl}-3-[4-(3,4-dichloro-benzyloxy)-phenyl]-2,3,8,9-tetrahydro-6H-[1,4]dioxino[2,3-g]isoquinoline-7-carboxylic acid isopropyl ester]"
9,12,"Cc1nc(C(=O)N2Cc3cc4c(cc3C[C@H]2C(=O)N[C@@H](Cc2ccc(-c3ccnc(C)c3C)cc2)C(=O)O)OC[C@H](c2ccc(OCc3cc(Cl)ccc3Cl)cc2)O4)c(C)o1 [Example 362, (S)-2-{[(3S,8S)-3-[4-(2,5-Dichloro-benzyloxy)-phenyl]-7-(2,5-dimethyl-oxazole-4-carbonyl)-2,3,6,7,8,9-hexahydro-[1,4]dioxino[2,3-g]isoquinoline-8-carbonyl]-amino}-3-[4-(2,3-dimethyl-pyridin-4-yl)-phenyl]-propionic acid]"
10,232,"Cc1nc(NC(=O)C(C)C)sc1S(=O)(=O)N1Cc2cc3c(cc2C[C@H]1C(=O)N[C@@H](Cc1ccc(-c2ccc(C#N)cc2)cc1)C(=O)O)OCC(c1ccc(OCc2ccc(Cl)c(Cl)c2)cc1)O3 (stereo in doubt) [Example 114, (S)-3-(4′-Cyano-biphenyl-4-yl)-2-{[(S)-3-[4-(3,4-dichloro-benzyloxy)-phenyl]-7-(2-isobutyrylamino-4-methyl-thiazole-5-sulfonyl)-2,3,6,7,8,9-hexahydro-[1,4]dioxino[2,3-g]isoquinoline-8-carbonyl]-amino}-propionic acid]"
11,387,"Cc1nc(C(=O)N2Cc3cc4c(cc3C[C@H]2C(=O)N[C@@H](Cc2ccc(-c3ccc(F)cc3)cc2)C(=O)O)OC[C@H](c2ccc(OCc3ccc(Cl)c(Cl)c3)cc2)O4)c(C)o1 [Example 440, (S)-2-{[(3S,8S)-3-[4-(3,4-Dichloro-benzyloxy)-phenyl]-7-(2,5-dimethyl-oxazole-4-carbonyl)-2,3,6,7,8,9-hexahydro-[1,4]dioxino[2,3-g]isoquinoline-8-carbonyl]-amino}-3-(4′-fluoro-biphenyl-4-yl)-propionic acid]"
12,163,"CC(=O)Nc1ccc(S(=O)(=O)N2Cc3cc4c(cc3C[C@H]2C(=O)N[C@@H](Cc2ccc(-c3ccc(C#N)cc3)cc2)C(=O)O)OCC(c2ccc(OCc3ccc(Cl)c(Cl)c3)cc2)O4)cc1 (stereo in doubt) [Example 115, (S)-2-({(S)-7-(4-Acetylamino-benzenesulfonyl)-3-[4-(3,4-dichloro-benzyloxy)-phenyl]-2,3,6,7,8,9-hexahydro-[1,4]dioxino[2,3-g]isoquinoline-8-carbonyl}-amino)-3-(4′-cyano-biphenyl-4-yl)-propionic acid]"
13,153,"Cc1nccc(-c2ccc(C[C@H](NC(=O)[C@@H]3Cc4cc5c(cc4CN3C(=O)OC(C)(C)C)O[C@@H](c3ccc(OCc4ccc(Cl)c(Cl)c4)cc3)CO5)C(=O)O)cc2)c1C [Example 174, (3S,8S)-8-{(S)-1-Carboxy-2-[4-(2,3-dimethyl-pyridin-4-yl)-phenyl]-ethylcarbamoyl}-3-[4-(3,4-dichloro-benzyloxy)-phenyl]-2,3,8,9-tetrahydro-6H-[1,4]dioxino[2,3-g]isoquinoline-7-carboxylic acid tert-butyl ester]"
14,176,"Cc1nc(C(=O)N2Cc3cc4c(cc3C[C@H]2C(=O)N[C@@H](Cc2ccc(-c3ccnc(C)c3C)cc2)C(=O)O)OC[C@H](c2ccc(OCC3CCC(F)(F)CC3)cc2)O4)c(C)o1 [Example 223, (S)-2-{[(3S,8S)-3-[4-(4,4-Difluoro-cyclohexylmethoxy)-phenyl]-7-(2,5-dimethyl-oxazole-4-carbonyl)-2,3,6,7,8,9-hexahydro-[1,4]dioxino[2,3-g]isoquinoline-8-carbonyl]-amino}-3-[4-(2,3-dimethyl-pyridin-4-yl)-phenyl]propionic acid]"
15,191,"Cc1nccc(-c2ccc(C[C@H](NC(=O)[C@@H]3Cc4cc5c(cc4CN3C(=O)N[C@H](C)c3ccccc3)O[C@@H](c3cccc(OCc4ccc(Cl)c(Cl)c4)c3)CO5)C(=O)O)cc2)c1C [Example 414, (S)-2-{[(3S,8S)-3-[3-(3,4-Dichloro-benzyloxy)-phenyl]-7-((R)-1-phenylethylcarbamoyl)-2,3,6,7,8,9-hexahydro-[1,4]dioxino[2,3-g]isoquinoline-8-carbonyl]-amino}-3-[4-(2,3-dimethyl-pyridin-4-yl)-phenyl]-propionic acid]"
16,2,"Cc1nccc(-c2ccc(C[C@H](NC(=O)[C@@H]3Cc4cc5c(cc4CN3C(=O)C3CCN(C(=O)OC(C)(C)C)CC3)O[C@@H](c3ccc(OCc4ccc(Cl)c(Cl)c4)cc3)CO5)C(=O)O)cc2)c1C [Example 274, 4-{(3S,8S)-8-{(S)-1-Carboxy-2-[4-(2,3-dimethyl-pyridin-4-yl)-phenyl]-ethylcarbamoyl}-3-[4-(3,4-dichloro-benzyloxy)-phenyl]-2,3,8,9-tetrahydro-6H-[1,4]dioxino[2,3-g]isoquinoline-7-carbonyl}-piperidine-1-carboxyl is acid tert-butyl ester]"
17,282,"Cc1nc(C(=O)N2Cc3cc4c(cc3C[C@H]2C(=O)N[C@@H](Cc2ccc(-c3ccnc(C)c3C)cc2)C(=O)O)OC[C@H](c2ccc(OCC3(c5ccc(Cl)cc5)CC3)cc2)O4)c(C)o1 [Example 378, (S)-2-{[(3S,8S)-3-{4-[1-(4-Chloro-phenyl)-cyclopropylmethoxy]-phenyl}-7-(2,5-dimethyl-oxazole-4-carbonyl)-2,3,6,7,8,9-hexahydro-[1,4]dioxino[2,3-g]isoquinoline-8-carbonyl]-amino}-3-[4-(2,3-dimethyl-pyridin-4-yl)-phenyl]-propionic acid]"

row,Compound,EC50 [nM]
1,"Cc1nccc(-c2ccc(C[C@H](NC(=O)[C@@H]3Cc4cc5c(cc4CN3C(=O)c3ccccc3)O[C@@H](c3ccc(OCCC(C)(C)C)cc3)CO5)C(=O)O)cc2)c1C [Example 303, (S)-2-({(3S,8S)-7-Benzoyl-3-[4-(3,3-dimethyl-butoxy)-phenyl]-2,3,6,7,8,9-hexahydro-[1,4]dioxino[2,3-g]isoquinoline-8-carbonyl}-amino)-3-[4-(2,3-dimethyl-pyridin-4-yl)-phenyl]-propionic acid]",141
